This is an account of results in paper PMC10379611 (International Journal of Molecular Sciences, 2023).

Broadly, the IC50 is the concentration that gives 50% inhibition.

Each structure is given as a SMILES string. “Also recorded” adds a separate entry of the source.

Data set [1] deals with T1, ENT2 (Homo sapiens, UniProt Q14542).
T1 construct: expressed in transfected cells; host or cells: MDCKII (lentiviral transduction)
T1 sequence (Q14542 1-456): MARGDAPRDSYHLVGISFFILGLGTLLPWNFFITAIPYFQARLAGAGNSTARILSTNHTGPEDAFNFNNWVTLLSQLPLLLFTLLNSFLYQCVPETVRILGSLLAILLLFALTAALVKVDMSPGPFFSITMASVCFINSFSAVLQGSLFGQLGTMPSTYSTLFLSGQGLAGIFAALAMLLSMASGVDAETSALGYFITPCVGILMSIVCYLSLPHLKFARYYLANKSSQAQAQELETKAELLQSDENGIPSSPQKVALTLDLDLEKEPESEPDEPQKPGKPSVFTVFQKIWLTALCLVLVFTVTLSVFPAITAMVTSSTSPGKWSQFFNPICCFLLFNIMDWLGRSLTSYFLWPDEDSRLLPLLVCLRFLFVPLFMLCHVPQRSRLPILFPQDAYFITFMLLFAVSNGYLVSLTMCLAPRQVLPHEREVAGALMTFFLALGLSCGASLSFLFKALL
Put plainly: ENT2-mediated adenosine uptake in ENT2-MDCKII cells. It counts as cell-based. Here is the method:
ENT and CNT transporter interactions were investigated in transporter-overexpressing cell lines. Madin-Darby Canine Kidney II (MDCKII) cell lines overexpressing the human uptake transporters CNT1, CNT2, ENT1, and ENT2 were generated via lentiviral transduction. Cell cultures were maintained in Dulbecco’s modified Eagle’s medium (DMEM) and 4500 mg/L of glucose supplemented with GlutaMax^TM, 10% v/v fetal bovine serum (FBS), 100 units/mL penicillin, and 100 µg/mL streptomycin (all from Gibco/ThermoFisher, Waltham, MA, USA) at 37 °C in 5% CO2 at 95% humidity. For uptake inhibition assays, transporter-expressing cells and mock-transduced control cells were seeded on 96-well tissue culture plates at a density of 1 × 10^5 cells/well. […] To determine the amounts of accumulated radiolabeled substrates, cell lysates mixed with a liquid scintillation cocktail were measured with a MicroBeta2 microplate counter (PerkinElmer, Singapore).
Transporter-specific accumulation of the probe substrate was calculated using the following formula: ACCSpec = ACCTRP − ACCMock, where ACCTRP is the accumulation of the probe in transporter-expressing cells and ACCMock is the accumulation of the probe in control cells. Relative transporter-specific accumulation values were calculated as percentages of the control value (with vehicle only).

Data set [2] relates to SARS-CoV-2. Further details: method as in PMID 34726479. To be noted: cell culture tests; cited from earlier work.
For data set [3], the system named is OATP1B3. To be noted: read-out: IC50 for OATP1B3; cited from earlier work.
Data set [4] has as its target ABCB1 (Homo sapiens, UniProt P08183). In words: ABCB1 ATPase activity in Sf9 membrane vesicles. Further details: purchased Solvo Biotechnology, Budapest. To be noted: insect cell membrane vesicles. The format is biochemical. Here is the method:
(§1) ATPase activity was measured in Sf9 membrane vesicles containing the respective human ABC transporters, as described in our earlier work. For ABCG2, the cholesterol level in the vesicles was increased to the level of mammalian cell membranes to obtain full activity. In brief, membrane vesicles (5 μg protein/sample) were incubated with 3 mM Mg-ATP and various concentrations of test compounds. Background ATPase activity of membranes was determined by applying the general ABC transporter inhibitor sodium orthovanadate (1 mM). Measurements were carried out for 20 min at 37 °C. The amount of phosphate liberated from ATP was detected using a colorimetric method and a VictorX3 plate reader at 660 nm Abs. Reference activators (50 µM verapamil for ABCB1 and 1 µM quercetin for ABCG2) served as positive controls.

For data set [5], the target named is T2, ABCG2 (Homo sapiens, UniProt Q9UNQ0).
T2 sequence (Q9UNQ0 1-655): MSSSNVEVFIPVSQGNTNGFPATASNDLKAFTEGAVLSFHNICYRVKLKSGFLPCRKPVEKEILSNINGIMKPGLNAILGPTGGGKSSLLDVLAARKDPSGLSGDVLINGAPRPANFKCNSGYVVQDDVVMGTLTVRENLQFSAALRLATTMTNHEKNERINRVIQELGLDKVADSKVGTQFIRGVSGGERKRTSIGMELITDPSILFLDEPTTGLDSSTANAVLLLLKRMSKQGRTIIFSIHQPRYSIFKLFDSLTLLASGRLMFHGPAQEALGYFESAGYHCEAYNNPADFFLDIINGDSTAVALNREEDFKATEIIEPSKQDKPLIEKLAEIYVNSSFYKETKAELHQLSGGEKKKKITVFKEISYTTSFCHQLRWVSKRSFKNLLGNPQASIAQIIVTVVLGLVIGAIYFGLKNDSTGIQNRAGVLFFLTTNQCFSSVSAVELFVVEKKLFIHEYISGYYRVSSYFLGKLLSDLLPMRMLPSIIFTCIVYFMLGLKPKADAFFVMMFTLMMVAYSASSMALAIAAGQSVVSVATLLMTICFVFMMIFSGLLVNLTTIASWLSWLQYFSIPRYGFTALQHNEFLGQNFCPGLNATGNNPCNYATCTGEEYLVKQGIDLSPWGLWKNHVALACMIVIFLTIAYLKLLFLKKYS
Put plainly: ABCG2 ATPase activity in Sf9 membrane vesicles. It counts as biochemical. Further details: purchased Solvo Biotechnology, Budapest. The settings on record: insect cell membrane vesicles. On the procedure:
as §1

Sequence of ABCB1 (P08183 whole entry): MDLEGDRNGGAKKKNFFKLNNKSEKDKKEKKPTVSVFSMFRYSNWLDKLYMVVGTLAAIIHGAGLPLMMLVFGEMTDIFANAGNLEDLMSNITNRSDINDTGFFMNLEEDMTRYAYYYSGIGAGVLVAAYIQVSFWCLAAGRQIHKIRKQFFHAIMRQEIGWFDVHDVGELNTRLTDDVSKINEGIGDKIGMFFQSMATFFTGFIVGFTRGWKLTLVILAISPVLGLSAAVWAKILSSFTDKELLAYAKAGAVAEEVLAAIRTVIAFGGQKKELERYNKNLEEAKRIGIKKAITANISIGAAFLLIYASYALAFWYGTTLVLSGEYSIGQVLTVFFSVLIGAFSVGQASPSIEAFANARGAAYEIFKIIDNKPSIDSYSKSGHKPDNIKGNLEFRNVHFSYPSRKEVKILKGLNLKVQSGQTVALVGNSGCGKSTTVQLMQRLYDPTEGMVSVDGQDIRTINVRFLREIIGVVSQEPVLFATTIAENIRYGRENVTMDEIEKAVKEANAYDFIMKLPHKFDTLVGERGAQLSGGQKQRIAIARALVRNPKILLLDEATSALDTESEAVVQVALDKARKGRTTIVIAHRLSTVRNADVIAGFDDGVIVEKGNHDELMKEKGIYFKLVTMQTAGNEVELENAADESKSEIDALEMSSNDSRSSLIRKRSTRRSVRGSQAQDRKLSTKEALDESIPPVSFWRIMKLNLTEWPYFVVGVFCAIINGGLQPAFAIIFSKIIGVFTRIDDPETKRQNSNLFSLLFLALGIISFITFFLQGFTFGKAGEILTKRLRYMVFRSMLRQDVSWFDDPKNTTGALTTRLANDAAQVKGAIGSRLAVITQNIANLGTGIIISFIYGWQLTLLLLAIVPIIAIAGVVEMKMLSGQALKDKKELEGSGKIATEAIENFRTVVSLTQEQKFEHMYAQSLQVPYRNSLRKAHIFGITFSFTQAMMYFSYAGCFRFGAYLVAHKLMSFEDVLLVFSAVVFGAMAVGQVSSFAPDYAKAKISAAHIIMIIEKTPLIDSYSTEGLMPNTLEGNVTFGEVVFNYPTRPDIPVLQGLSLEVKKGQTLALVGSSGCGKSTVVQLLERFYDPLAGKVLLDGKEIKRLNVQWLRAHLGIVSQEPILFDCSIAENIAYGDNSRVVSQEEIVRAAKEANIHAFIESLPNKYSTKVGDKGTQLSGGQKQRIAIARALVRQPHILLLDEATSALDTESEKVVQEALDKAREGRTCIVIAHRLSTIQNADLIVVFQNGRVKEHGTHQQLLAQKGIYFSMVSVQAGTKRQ

In the case of `CC(C)C(=O)OC[C@H]1O[C@@H](n2ccc(NO)nc2=O)[C@H](O)[C@@H]1O` [EIDD-2801, Molnupiravir], in data set [1], the “inhibition of adenosine uptake by ENT2” value is “only mildly inhibited”.
In the case of `CC(C)(C)[C@H](NC(=O)C(F)(F)F)C(=O)N1C[C@H]2[C@@H]([C@H]1C(=O)N[C@H](C#N)C[C@@H]1CCNC1=O)C2(C)C` [Nirmatrelvir], the “antiviral activity against SARS-CoV-2” value in data set [2] is given as “nanomolar range”. Further, in data set [3], the IC50 was above 100 µM. Further, the “effect on transport-coupled ATPase activity of ABCB1” value in data set [4] is “significantly increased; also recorded: stimulated”. In data set [5], the “effect on ATPase activity of ABCG2” value is “no such effect”.
